{"source": "paper PMC10647589", "about": "“Heterogeneous Cellular Response of Primary and Metastatic Human Gastric Adenocarcinoma Cell Lines to Magnoflorine and Its Additive Interaction with Docetaxel” (International Journal of Molecular Sciences, 2023)", "key": {"zebrafish larvae": {"system": "zebrafish larvae", "assay": "Locomotor activity assay in larval zebrafish", "type": "in vivo", "settings": "MGN 100, 175 or 250 µg/mL, after 95 h incubation", "experimental": "Locomotor activity was examined to determine whether chronic MGN exposure may induce neurotoxic effects in fish. Noldusapparatus (EthoVision XT, Wageningen, The Netherlands) was used for this purpose. After 95 h of incubation in different doses of MGN (100, 175 or 250 µg/mL), each larva was placed individually in the wells of a 48-well plate filled with 300 µL of the medium. After 15 min of habituation, larval activity was tracked in the light phase for a period of 30 min. The distance covered by each larva in millimeters (mm) was assessed."}, "[1]": {"system": "human GC cells ACC-201, AGS, MKN-74 and NCI-N87", "assay": "BrdU incorporation assay", "type": "cell-based", "settings": "MGN 2–75 μg/mL, 72 h, four GC cell lines", "experimental": "The human GC cells ACC-201, AGS, MKN-74 and NCI-N87 were placed in 96-well plates and allowed to adhere overnight. On the following day, the growth medium was replaced with fresh medium, and the cells were exposed to a series of tested MGN dilutions (2.0–75 µg/mL) for 72 h. Cell proliferation was quantified according to the manufacturer’s instruction, Cell Proliferation ELISA, BrdU (colorimetric) (Biorbyt, Cambridge, UK). Briefly, BrdU reagent was added to the medium, followed by Fixative/Denaturing Solution for 30 min at room temperature. Incorporated BrdU in the place of thymidine in the cell’s DNA under division was detected using mouse monoclonal anti-BrdU for 1 h at room temperature, followed by horseradish peroxidase (HRP)-linked goat anti-mouse IgG secondary antibody and tetramethylbenzidine (a HRP substrate) for 30 min at room temperature. The absorbance was measured at 450 nm using Infinite M200 Pro microplate reader (Tecan, Männedorf, Switzerland). Results are presented as a percentage of BrdU incorporation vs. control cells (indicated as 100%)."}, "AGS human GC cells": {"system": "AGS human GC cells", "assay": "Active caspase-3 analysis (flow cytometry)", "type": "cell-based", "settings": "72 h", "experimental": "(§1) Human GC cells ACC-201, AGS, MKN-74 and NCI-N87 were seeded in 6-well plates and allowed to adhere overnight. On the following day, the growth medium was replaced with fresh medium, and the cells were exposed to indicated concentrations of MGN (10–40 µg/mL) for 72 h. Apoptotic cells were analyzed using PE Active Caspase-3 Apoptosis Kit (BD Biosciences) according to the manufacturer’s instructions. Briefly, the cells were collected, washed with cold PBS and then incubated in Cytofix/Cytoperm Solution for 20 min on ice. After two washes, the cells were incubated with Active Caspase-3 Antibody in Perm/Wash Buffer for 30 min at room temperature. Finally, the cells were resuspended in Perm/Wash Buffer and quantitative analysis of 10,000 cells per sample was performed through the use of FACS CaliburTM flow cytometer (BD Biosciences, Mountain View, CA, USA)."}, "MKN-74 human GC cells": {"system": "MKN-74 human GC cells", "assay": "Active caspase-3 analysis (flow cytometry)", "type": "cell-based", "settings": "MKN-74, MGN 10 µg/mL, 72 h", "experimental": "as §1"}, "ACC-201 human GC cells": {"system": "ACC-201 human GC cells", "assay": "Active caspase-3 analysis (flow cytometry)", "type": "cell-based", "settings": "ACC-201, MGN 10 µg/mL, 72 h", "experimental": "as §1"}, "[2]": {"system": "zebrafish embryos and larvae", "assay": "Zebrafish embryo toxicity test (OECD test no. 236, modified)", "type": "in vivo", "experimental": "At first, zebrafish embryos were screened and sorted one hour after fertilization. Only perfectly transparent and fertilized embryos were transferred to plastic well plates. […] Developing embryos were incubated in the MGN solutions until 96 hpf. The amounts of MGN absorbed by zebrafish were measured in 96 hpf-old larvae (n = 50 larvae/sample, three samples/dose) through the use of HPLC-MS. The larvae were first washed in medium prior to homogenization with the additive of acetonitrile:water mixture in equal proportions (50:50 v/v). The homogenate was centrifuged at 20,000 rpm for 20 min, and the supernatant was pipetted, filtered through a nylon syringe filter (nominal pore size of 0.1 µm diameter) and subjected to HPLC-MS analysis in the positive ionization mode.\nThe following phenotypic features were scored in larvae exposed to different doses of MGN: (I) hatchability at 72 and 96 hpf, (II) morphological anomalies at 96 hpf, and (III) escape response at 96 hpf. Morphological analysis included the presence/lack of swim bladder, body axis/shape, presence/lack of pericardial edema, jaw development, normal/necrotic yolk sac, presence/absence of hemorrhage and changes in pigmentation. For photographs, each larva was anaesthetized and mounted on a glass slide. To evaluate the muscle performance and function in MGN-incubated larvae, in a separate cohort of 96 hours-old larvae, we assessed escape response by touching the tail with the tip of a needle."}}}
{"smiles": "COc1ccc2c(c1O)-c1c(O)c(OC)cc3c1[C@H](C2)[N+](C)(C)CC3", "note": "[MGN, magnoflorine]", "values": [{"measurement": "locomotor activity: distance travelled within 30 min vs control", "setting": "zebrafish larvae", "value": "No differences between the tested groups"}, {"measurement": "BrdU-labeled DNA (proliferation)", "setting": "[1]", "value": "dose-dependent decrease"}, {"measurement": "% cells with active caspase-3", "setting": "AGS human GC cells; MGN 10 µg/mL", "value": "2.390 ± 0.411", "unit": "%"}, {"measurement": "% cells with active caspase-3", "setting": "AGS human GC cells; MGN 20 µg/mL", "value": "4.172 ± 0.422", "unit": "%"}, {"measurement": "% cells with active caspase-3", "setting": "MKN-74 human GC cells", "value": "2.633 ± 0.069", "unit": "%"}, {"measurement": "% cells with active caspase-3", "setting": "ACC-201 human GC cells", "value": "6.770 ± 0.866", "unit": "%"}, {"measurement": "Hatching rate", "setting": "[2]; MGN 100 µg/mL, scored at 72 hpf", "value": 100, "unit": "%"}, {"measurement": "Hatching rate", "setting": "[2]; MGN 100 µg/mL, scored at 96 hpf", "value": 100, "unit": "%"}, {"measurement": "Hatching rate", "setting": "[2]; MGN 175 µg/mL, scored at 72 hpf", "value": 100, "unit": "%"}, {"measurement": "Hatching rate", "setting": "[2]; MGN 175 µg/mL, scored at 96 hpf", "value": 100, "unit": "%"}, {"measurement": "Hatching rate", "setting": "[2]; MGN 250 µg/mL, scored at 72 hpf", "value": 52.77, "unit": "%"}, {"measurement": "Hatching rate", "setting": "[2]; MGN 250 µg/mL, scored at 96 hpf", "value": 94.44, "unit": "%"}, {"measurement": "larvae with curved body axis", "setting": "[2]; MGN 500 µg/mL, 96 hpf", "value": 43, "unit": "%"}, {"measurement": "larvae with delayed touch response", "setting": "[2]; MGN 500 µg/mL, 96 hpf", "value": 70, "unit": "%"}, {"measurement": "larvae with heart edema", "setting": "[2]; MGN 500 µg/mL, 96 hpf", "value": 40, "unit": "%"}, {"measurement": "larvae with lack of swim bladder", "setting": "[2]; MGN 500 µg/mL, 96 hpf", "value": 93, "unit": "%"}, {"measurement": "larvae with underdeveloped jaw", "setting": "[2]; MGN 500 µg/mL, 96 hpf", "value": 90, "unit": "%"}, {"measurement": "larvae with yolk sac necrosis", "setting": "[2]; MGN 500 µg/mL, 96 hpf", "value": 46, "unit": "%"}, {"measurement": "Hatching rate", "setting": "[2]; MGN 500 µg/mL, scored at 72 hpf", "value": 23.33, "unit": "%"}, {"measurement": "Hatching rate", "setting": "[2]; MGN 500 µg/mL, scored at 96 hpf", "value": 86.66, "unit": "%"}, {"measurement": "Hatching", "setting": "[2]; MGN 750 µg/mL, up to 96 h", "value": "none of the larvae hatched"}, {"measurement": "Survival", "setting": "[2]; MGN 750 µg/mL, up to 96 h", "value": "all survived in chorions"}, {"measurement": "concentration with no evidence of toxicity", "setting": "[2]; developing zebrafish, chronic exposure from 1 hpf to 96 hpf", "value": "up to 250 µg/mL"}, {"measurement": "morphological parameters scored", "setting": "[2]; three lowest concentrations (100, 175, 250 µg/mL), 96 hpf", "value": "did not affect any of the parameters scored"}]}
